Laboratory results from ChEMBL document CHEMBL1155538 (Bioorg Med Chem Lett, 2010).

Tests used:
[1] = Inhibition of tetrodotoxin-sensitive sodium channel
[2] = Half life in human liver microsomes; assay type: ADME, Microsome
[3] = target: Sodium-dependent noradrenaline transporter (Homo sapiens, UniProt P23975); assay: biochemical
[4] = target: Sodium-dependent serotonin transporter (Homo sapiens, UniProt P31645); assay: biochemical
[5] = target: Voltage-gated inwardly rectifying potassium channel KCNH2 (Homo sapiens, UniProt Q12809); assay: Displacement of [3H]dofetilide from human ERG
[6] = target: Sodium-dependent dopamine transporter (Homo sapiens, UniProt Q01959); assay: biochemical
Chain of Sodium-dependent dopamine transporter (Q01959 whole entry): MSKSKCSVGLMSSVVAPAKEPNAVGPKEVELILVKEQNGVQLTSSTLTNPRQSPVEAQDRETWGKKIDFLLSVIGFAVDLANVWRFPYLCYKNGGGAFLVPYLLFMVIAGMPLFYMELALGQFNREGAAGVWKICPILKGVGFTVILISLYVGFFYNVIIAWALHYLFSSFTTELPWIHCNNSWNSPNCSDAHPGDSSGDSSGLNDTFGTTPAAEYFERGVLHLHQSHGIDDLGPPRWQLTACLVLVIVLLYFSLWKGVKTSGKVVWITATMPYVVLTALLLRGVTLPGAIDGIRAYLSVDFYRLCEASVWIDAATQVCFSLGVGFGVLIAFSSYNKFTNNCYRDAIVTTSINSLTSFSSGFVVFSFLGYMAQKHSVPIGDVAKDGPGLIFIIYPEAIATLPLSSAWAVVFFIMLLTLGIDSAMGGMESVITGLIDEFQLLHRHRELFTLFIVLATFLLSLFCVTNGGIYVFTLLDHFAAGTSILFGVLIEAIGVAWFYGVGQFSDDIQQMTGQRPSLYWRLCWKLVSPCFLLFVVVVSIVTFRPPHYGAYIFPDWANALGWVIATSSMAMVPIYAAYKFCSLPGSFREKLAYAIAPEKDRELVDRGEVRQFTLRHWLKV

Chain of Sodium-dependent serotonin transporter (P31645 whole entry): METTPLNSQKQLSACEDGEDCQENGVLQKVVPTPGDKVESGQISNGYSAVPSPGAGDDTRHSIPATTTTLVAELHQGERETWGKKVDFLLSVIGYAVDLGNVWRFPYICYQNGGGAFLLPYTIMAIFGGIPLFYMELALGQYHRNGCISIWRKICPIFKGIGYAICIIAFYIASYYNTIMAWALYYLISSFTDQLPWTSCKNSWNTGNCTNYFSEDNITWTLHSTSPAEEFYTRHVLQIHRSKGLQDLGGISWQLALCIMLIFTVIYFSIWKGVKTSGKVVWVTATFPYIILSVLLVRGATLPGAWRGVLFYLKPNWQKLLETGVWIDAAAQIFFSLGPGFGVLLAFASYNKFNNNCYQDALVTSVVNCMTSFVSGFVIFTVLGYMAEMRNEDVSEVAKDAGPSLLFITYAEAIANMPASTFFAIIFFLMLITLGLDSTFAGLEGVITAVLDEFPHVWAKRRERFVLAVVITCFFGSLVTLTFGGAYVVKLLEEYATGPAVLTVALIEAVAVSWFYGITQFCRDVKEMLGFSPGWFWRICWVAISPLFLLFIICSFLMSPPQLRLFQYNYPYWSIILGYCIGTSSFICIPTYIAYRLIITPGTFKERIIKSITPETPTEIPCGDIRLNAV
Chain of Voltage-gated inwardly rectifying potassium channel KCNH2 (Q12809 whole entry): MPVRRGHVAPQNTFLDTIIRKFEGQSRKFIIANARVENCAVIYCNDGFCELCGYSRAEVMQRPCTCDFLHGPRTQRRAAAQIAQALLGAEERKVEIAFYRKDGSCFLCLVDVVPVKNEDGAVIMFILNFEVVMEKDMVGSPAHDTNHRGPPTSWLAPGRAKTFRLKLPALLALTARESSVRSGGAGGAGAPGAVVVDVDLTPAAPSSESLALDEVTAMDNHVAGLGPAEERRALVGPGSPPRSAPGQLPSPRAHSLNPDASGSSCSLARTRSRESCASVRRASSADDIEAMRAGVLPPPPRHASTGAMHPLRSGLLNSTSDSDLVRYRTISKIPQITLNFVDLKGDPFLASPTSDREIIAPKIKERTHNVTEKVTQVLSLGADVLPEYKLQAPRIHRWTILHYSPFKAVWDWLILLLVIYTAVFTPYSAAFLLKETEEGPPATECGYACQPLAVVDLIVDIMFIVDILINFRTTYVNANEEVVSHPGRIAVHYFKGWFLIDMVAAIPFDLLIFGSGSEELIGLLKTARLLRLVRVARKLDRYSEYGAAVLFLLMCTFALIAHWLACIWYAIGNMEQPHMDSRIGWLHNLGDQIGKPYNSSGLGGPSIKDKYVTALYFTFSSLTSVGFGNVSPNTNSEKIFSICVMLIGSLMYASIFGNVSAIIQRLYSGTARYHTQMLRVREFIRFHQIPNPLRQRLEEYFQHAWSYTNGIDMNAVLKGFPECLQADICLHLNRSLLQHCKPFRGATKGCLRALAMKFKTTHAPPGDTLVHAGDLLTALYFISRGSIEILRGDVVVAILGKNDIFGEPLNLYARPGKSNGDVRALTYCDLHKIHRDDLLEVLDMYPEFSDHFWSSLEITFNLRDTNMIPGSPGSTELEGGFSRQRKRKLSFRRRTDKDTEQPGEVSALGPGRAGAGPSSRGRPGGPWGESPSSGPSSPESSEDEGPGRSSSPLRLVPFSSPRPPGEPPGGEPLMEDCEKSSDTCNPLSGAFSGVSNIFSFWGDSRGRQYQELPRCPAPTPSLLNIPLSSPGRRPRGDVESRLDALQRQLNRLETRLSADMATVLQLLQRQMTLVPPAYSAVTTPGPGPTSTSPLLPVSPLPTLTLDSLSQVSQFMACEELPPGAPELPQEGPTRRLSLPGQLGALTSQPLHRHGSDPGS
Chain of Sodium-dependent noradrenaline transporter (P23975 whole entry): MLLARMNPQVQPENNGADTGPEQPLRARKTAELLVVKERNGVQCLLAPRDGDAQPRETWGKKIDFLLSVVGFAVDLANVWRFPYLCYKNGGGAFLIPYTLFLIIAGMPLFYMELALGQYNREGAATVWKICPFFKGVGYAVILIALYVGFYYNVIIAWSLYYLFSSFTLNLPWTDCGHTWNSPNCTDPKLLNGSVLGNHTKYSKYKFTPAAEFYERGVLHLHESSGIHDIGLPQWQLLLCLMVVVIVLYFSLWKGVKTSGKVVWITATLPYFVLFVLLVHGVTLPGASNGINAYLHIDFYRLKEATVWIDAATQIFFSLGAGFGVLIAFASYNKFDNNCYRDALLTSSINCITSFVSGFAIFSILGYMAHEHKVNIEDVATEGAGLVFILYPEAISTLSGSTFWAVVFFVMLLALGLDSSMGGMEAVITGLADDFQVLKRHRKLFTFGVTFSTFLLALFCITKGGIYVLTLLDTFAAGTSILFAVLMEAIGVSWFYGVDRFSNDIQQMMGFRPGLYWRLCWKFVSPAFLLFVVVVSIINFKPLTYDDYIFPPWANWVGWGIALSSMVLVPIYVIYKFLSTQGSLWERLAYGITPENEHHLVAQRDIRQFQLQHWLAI

`CC(C)CN(C(=O)c1cccc(Cl)c1Cl)[C@H]1CCNC1` gave an IC50 [1] of 8.55 µM and a half-life [2] of over 2 h.
In the case of `c1ccc(C(Cc2cccc3c2OCC3)N2CCNCC2)cc1` (stereo unspecified), the Ki [3] is reported as 0.34 µM, the Ki [4] is reported as 0.008 µM and the IC50 [5] is reported as 21.4 µM. For the same molecule, the Ki [6] was over 3.16 µM.
